According to patent US5274118A, “Process for preparing (2R)-methyl-4,4,4-trifluorobutylamine” (Imperial Chemical Industries PLC, priority 1990, dated 1993):
pKi: −log10 of the molar value.

Tests used:
leukotriene LTD4 = experiment: guinea-pig aerosol test (LTD4 aerosol challenge, onset of dyspnea); type: in vivo; settings: guinea-pigs
Description: According to this procedure, guinea-pigs are pre-dosed with test compound as a solution in poly(ethylene glycol) (generally 1 hour) before an aerosol challenge of leukotriene LTD4 (starting with 2 ml of a 30 microgram/ml solution) and the effect of the test compound on the average time of leukotriene initiated change in breathing pattern (such as onset of dyspnea) recorded and compared with that in undosed, control guinea-pigs. Percent protection engendered by a test compound was calculated from the time delay to the onset of dyspnea compared to that for control animals.

[1] = target: T1, leukotrienes LTC4, LTD4 and/or LTE4 (Cavia porcellus, UniProt Q2NNR5); experiment: receptor-ligand binding assay described by Aharony; settings: typically determined
T1 construct: from tissue
T1 sequence (Q2NNR5 1-340): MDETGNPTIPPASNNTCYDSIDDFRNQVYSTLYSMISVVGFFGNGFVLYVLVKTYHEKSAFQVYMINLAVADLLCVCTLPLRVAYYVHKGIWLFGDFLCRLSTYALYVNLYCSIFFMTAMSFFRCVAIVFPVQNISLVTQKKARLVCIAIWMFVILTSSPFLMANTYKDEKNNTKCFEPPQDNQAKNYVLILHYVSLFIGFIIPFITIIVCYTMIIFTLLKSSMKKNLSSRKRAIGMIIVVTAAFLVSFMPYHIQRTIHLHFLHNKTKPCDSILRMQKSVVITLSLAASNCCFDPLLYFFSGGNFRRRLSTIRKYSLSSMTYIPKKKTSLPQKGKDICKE

pKi [1]: 9.40
SMILES: COc1cc(C(=O)NS(=O)(=O)c2ccccc2C)ccc1Cc1cn(C)c2ccc(C(=O)NC[C@H](C)CC(F)(F)F)cc12 [compound of formula I substantially in the form of the (R)-enantiomer, (R)-3-Methoxy-4-[1-methyl-5-(2-methyl-4,4,4-trifluorobutylcarbamoyl)indol-3-ylmethyl]-N-(2-methylphenylsulfonyl)benzamide]
ED50 (leukotriene LTD4; Cavia porcellus, oral administration, pre-dosed generally 1 hour before LTD4 aerosol challenge, read-out: ED50 (protection against LTD4-induced dyspnea)): 1.1 µmol/kg
untoward side-effects (leukotriene LTD4; oral, at several multiples of the minimum effective dose): without any indication of untoward side-effects
